Measured values published in patent US20080213281A1, “Butyrylcholinesterase Variants that Alter the Activity of Chemotherapeutic Agents” (priority 2002, published 2008).

Key:
[1] = in vitro; Pavillard et al.; cited from earlier work
[2] = patients treated with 200 mg/m2 CPT-11; for at least 24 hours; Ducreux et al.; cited from earlier work
CD20 = molecular target: T1, CD20 (Homo sapiens, UniProt P11836); test: affinity of monovalent AME133 Fab for CD20; assay type: binding
T1 sequence (P11836 1-297): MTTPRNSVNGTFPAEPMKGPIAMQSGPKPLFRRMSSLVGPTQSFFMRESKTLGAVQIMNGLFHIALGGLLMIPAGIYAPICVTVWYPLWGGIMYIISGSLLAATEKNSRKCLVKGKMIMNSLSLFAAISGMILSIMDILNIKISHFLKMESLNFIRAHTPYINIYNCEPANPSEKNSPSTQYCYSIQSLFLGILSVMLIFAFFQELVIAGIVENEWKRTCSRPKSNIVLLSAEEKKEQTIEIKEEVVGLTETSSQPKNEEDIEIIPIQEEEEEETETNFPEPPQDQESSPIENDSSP
Description: AME133 is a humanized anti-CD20 with fully human germline framework regions shown in FIGS. 19 and 20 and set forth as SEQ ID NOS: 198 and 200, with corresponding nucleic acid sequences SEQ ID NOS: 197 and 199. This antibody was generated at Applied Molecular Evolution using the company's directed evolution strategies, and the monovalent Fab binds to CD20 with extremely high affinity (1×10^−9 M). Anti-CD20-BChE.4-1 (SEQ ID NO: 202) is composed of AME133 Fab fused at the C-terminal end of the CH1 heavy chain domain to the N-terminus of modified BChE variant L530 (SEQ ID NO: 204), which is a functional fragment of reference SEQ ID NO: 180. The BChE variant was truncated at amino acid 530 to abrogate its normal assembly into tetramers.

## CCc1c2c(nc3ccc(O)cc13)-c1cc3c(c(=O)n1C2)COC(=O)[C@]3(O)CC [SN38, 7-ethyl-10-hydroxycamptothecin]
[1]
  fold more cytotoxic than CPT-11: greater than 1000 fold

## CCc1c2c(nc3ccc(OC(=O)N4CCC(N5CCCCC5)CC4)cc13)-c1cc3c(c(=O)n1C2)COC(=O)[C@]3(O)CC [CPT-11, 7-ethyl-10-[4-(1-piperidino)-1-piperidine]carbonyloxycamptothecin]
[2]
  plasma concentration of CPT-11: above 0.1 μM

B1: AME133 (protein)
light: EIVLTQSPGTLSLSPGERATLSCRASSSVPYIHWYQQKPGQAPRLLIYATSALASGIPDRFSGSGSGTDFTLTISRLEPEDFAVYYCQQWLSNPPTFGQGTKLEIKRTVAAPSVFIFPPSDEQLKSGTASVVCLLNNFYPREAKVQWKVDNALQSGNSQESVTEQDSKDSTYSLSSTLTLSKADYEKHKVYACEVTHQGLSSPVTKSFNRGEC
heavy: EVQLVQSGAEVKKPGESLKISCKGSGRTFTSYNMHWVRQMPGKGLEWMGAIYPLTGDTSYNQKSKLQVTISADKSISTAYLQWSSLKASDTAMYYCARSTYVGGDWQFDVWGKGTTVTVSSASTKGPSVFPLAPSSKSTSGGTAALGCLVKDYFPEPVTVSWNSGALTSGVHTFPAVLQSSGLYSLSSVVTVPSSSLGTQTYICNVNHKPSNTKVDKKAEPKSCDKTHTCPPCPKLEDDIIIATKNGKVRGMNLTVFGGTVTAFLGIPYAQPPLGRLRFKKPQSLTKWSDIWNATKYANSCCQNIDQSFPGFFGSEMWNPNTDLSEDCLYLNVWIPAPKPKNATVLIWIYGGGFQTGTSSLHVYDGKFLARVERVIVVSMNYRVGALGFLALPGNPEAPGNMGLFDQQLALQWVQKNIAAFGGNPKSVTLFGESAGAASVSLHLLSPGSHSLFTRAILQSGSANAPWAVTSLYEARNRTLNLAKLTGCSRENETEIIKCLRNKDPQEILLNEAFVVPYGTNLSVNFGPTVDGDFLTDMPDILLELGQFKKTQILVGVNKDEGTAFLAYGAPGFSKDNNSIITRKEFQEGLKIFFPGVSEFGKESILFHYTDWVDDQRPENYREALGDVVGDYNFICPALEFTKKFSEWGNNAFFYYFEHRSSKLPWPEWMGVMHGYEIEFVFGLPLERRDNYTKAEEILSRSIVKRWANFAKYGNPNETQNNSTSWPVFKSTEQKYLTLNTESTRIMTKLRAQQCRFWTSFFPKV
modifications: Synthetic butyrylcholinesterase variant; MISC_FEATURE (1)..(213): Anti-CD20 antibody light chain; MISC_FEATURE (1)..(765): Anti-CD20 antibody VH-CH1 hinge cys L530 BChE.4-1 heavy chain construct
CD20
  Kd: 1 nM
